Patent US20230145835A1, “Modulators of Alpha-4-beta-7 Integrin and MAdCAM” (48HD Biopharma Inc., priority 2021, published 2023)
Numbered stars: 1 amine (or outer) side, 2 acyl side, 3 side chain; on linkers, the order of the positions; unused ones are H or OH. Bridge positions count the residues as written; N and C are the ends. Square brackets hold non-standard residues; d marks the D form. Peptide text beside a SMILES is read from it. ξ: configuration not given here. X3 = O=C(/C=N/OCCCCCCOc1cc(C[*:2])cc(C[*:3])c1)[*:1]; X1 = O=C(C=NOCCCCCCOc1cc(C[*:2])cc(C[*:3])c1)[*:1]; X4 = N=C(N)NCCC[C@@H](CN[*:1])C(=O)[*:2]; hIle(4ξ) = CCC(C)C[C@H](N)C(=O)O; aThr = C[C@H](O)[C@H](N)C(=O)O

Columns and labels:
[1] = Simulated Intestinal Fluid Assay; settings: for half-life: simulated gi fluid
Protocol: Studies were carried out in simulated intestinal fluid (SIF) to evaluate the intestinal stability of the peptide molecules of the peptides of the instant disclosure. A Fasted State Simulated Intestinal Fluid (FaSSIF) reagent was prepared according to methods known in the art (including addition of the enzyme pancreatin), to which stock peptide solutions were added, incubated, quenched, and analyzed using LCMS/MS.
Percent remaining at each time point was calculated based on the peak area response ratio of test to compound to internal standard. Half-lives were calculated by fitting to a first-order exponential decay equation using GraphPad.

rh-integrin α4β7/LPAM-1 = target: T1, rh-integrin α4β7/LPAM-1 (Homo sapiens, UniProt P13612+P26010); assay: α4β7-MadCAM Competition ELISA (Example 4); assay type: binding; settings: Table 3 Representative compounds; inhibition of MAdCAM binding to coated α4β7; read-out: IC50
T1 sequence (P13612 34-977 limits assumed): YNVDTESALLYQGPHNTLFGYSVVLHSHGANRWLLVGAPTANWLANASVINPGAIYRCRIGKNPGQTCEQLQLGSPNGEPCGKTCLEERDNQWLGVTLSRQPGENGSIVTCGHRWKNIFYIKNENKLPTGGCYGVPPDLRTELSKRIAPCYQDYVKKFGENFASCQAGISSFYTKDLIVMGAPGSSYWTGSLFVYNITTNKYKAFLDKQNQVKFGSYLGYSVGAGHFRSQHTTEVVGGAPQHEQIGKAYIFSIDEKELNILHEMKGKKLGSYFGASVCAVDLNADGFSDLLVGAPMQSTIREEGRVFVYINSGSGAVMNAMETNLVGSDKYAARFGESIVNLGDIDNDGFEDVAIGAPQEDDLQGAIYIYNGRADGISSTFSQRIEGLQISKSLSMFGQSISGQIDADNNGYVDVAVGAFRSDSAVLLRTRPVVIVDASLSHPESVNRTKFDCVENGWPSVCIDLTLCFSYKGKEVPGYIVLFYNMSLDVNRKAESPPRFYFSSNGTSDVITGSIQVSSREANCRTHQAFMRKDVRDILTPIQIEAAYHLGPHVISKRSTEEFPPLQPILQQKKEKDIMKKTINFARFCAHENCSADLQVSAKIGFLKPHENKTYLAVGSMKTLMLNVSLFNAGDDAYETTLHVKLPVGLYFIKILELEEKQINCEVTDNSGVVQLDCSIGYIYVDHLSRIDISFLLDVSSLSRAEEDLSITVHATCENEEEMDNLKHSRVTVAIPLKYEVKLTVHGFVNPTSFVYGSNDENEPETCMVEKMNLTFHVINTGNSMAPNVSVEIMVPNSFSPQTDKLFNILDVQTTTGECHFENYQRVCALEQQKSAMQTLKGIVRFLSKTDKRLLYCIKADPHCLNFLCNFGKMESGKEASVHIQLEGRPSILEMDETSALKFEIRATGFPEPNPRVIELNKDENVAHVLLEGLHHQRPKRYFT
T1 sequence (P26010 20-723 limits assumed): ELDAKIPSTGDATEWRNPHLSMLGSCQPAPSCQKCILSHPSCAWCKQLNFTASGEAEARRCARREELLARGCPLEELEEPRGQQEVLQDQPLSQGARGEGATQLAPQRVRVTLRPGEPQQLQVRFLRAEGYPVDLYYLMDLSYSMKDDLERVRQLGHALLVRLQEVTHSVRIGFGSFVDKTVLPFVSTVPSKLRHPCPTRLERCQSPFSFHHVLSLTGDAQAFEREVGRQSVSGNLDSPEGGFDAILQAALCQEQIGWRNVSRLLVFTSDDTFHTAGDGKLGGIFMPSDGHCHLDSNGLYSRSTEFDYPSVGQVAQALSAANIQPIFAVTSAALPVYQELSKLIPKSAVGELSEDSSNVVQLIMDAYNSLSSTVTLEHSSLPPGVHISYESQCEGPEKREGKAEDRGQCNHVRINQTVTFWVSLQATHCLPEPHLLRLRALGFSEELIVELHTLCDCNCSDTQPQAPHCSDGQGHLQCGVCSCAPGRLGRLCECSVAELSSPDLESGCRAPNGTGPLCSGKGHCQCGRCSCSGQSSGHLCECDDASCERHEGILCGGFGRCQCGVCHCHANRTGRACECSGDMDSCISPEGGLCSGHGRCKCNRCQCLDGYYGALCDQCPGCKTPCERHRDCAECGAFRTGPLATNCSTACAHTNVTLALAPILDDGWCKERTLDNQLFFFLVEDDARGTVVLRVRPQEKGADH
Protocol: After washing with wash buffer, 200 μL assay buffer was added to each well and incubated for one hour at 28° C. After another wash with wash buffer, 100 μL of a MAdCAM and peptide mixture in assay buffer was added to each well and incubated for one hour at 28° C., followed by washing with wash buffer.

half-life [1] [min] | Structure (SMILES) | IC50 (rh-integrin α4β7/LPAM-1) [µM] | further results
23.6 | CSCC[C@H](NC(=O)[C@@H](N)CO)C(=O)N[C@H]1CSSC[C@@H](C(=O)O)NC(=O)[C@H](Cc2c[nH]cn2)NC(=O)[C@H](C(C)C)NC(=O)[C@H](CCCCN)NC(=O)[C@H](Cc2ccc(O)cc2)NC(=O)[C@H](CC(C)C)NC(=O)[C@@H]2CCCN2C1=O [SEQ ID NO. 5] (H-SMCPLYKVHC-OH; disulfide 3-10) |  | 
8.23 | CSCC[C@@H]1NC(=O)C=NOCCCCCCOc2cc3cc(c2)CSC[C@H](NC1=O)C(=O)N1CCC[C@H]1C(=O)N[C@@H](CC(C)C)C(=O)N[C@@H](Cc1ccc(O)cc1)C(=O)N[C@@H](CCCCN)C(=O)N[C@@H](C(C)C)C(=O)N[C@@H](Cc1c[nH]cn1)C(=O)N[C@H](C(=O)O)CSC3 [SEQ ID NO. 8] (MCPLYKVHC-OH; linker N-2-9 via X1) |  | 
 | C[C@@H](O)[C@H](NC(=O)[C@H](CC(=O)O)NC(=O)[C@@H]1CCCN1C(=O)[C@H](Cc1ccc(O)cc1)NC(=O)[C@H](CS)NC(=O)[C@H](CC(=O)O)NC(=O)[C@@H](N)CO)C(=O)N[C@@H](Cc1ccc(O)cc1)C(=O)N[C@@H](Cc1c[nH]cn1)C(=O)N[C@@H](CS)C(=O)O [SEQ ID NO. 13] (H-SDCYPDTYHC-OH) |  | Comments ([1]; FaSSIF, LCMS/MS): No peak
 | CSCC[C@@H]1NC(=O)[C@H](CCCNC(=N)N)NC(=O)[C@@H]2CSCc3cc(cc(c3)OCCCCCCO/N=C/C(=O)N[C@@H]([C@H](C)O)C(=O)N2)CSC[C@@H](C(N)=O)NC(=O)[C@H](CC(=O)O)NC(=O)[C@H](CCC(N)=O)NC(=O)[C@H](Cc2ccccc2)NC(=O)[C@H](CC(=O)O)NC1=O [compound 106, TSL6- STCRMDFQDC] ([aThr]CRMDFQDC-NH2; linker N-2-9 via X3) | 499 | 
 | CCC(C)C[C@@H]1NC(=O)[C@H](CC(=O)O)NC(=O)[C@H](CC(C)C)NC(=O)[C@H](CCCCN)NC(=O)[C@@H]2CSCc3cc(cc(c3)OCCCCCCO/N=C/C(=O)N[C@@H](Cc3c[nH]cn3)C(=O)N2)CSC[C@@H](C(N)=O)NC(=O)[C@H](CC(C)C)NC(=O)[C@H](Cc2c[nH]c3ccccc23)NC1=O (stereo partly shown) [compound 107, TSL6- SHCKLDIWVC] (HCKLD[hIle(4ξ)]WLC-NH2; linker N-2-9 via X3) | > 500 | 
 | CC(C)C[C@@H]1NC(=O)[C@@H]2CCCN2C(=O)[C@@H]2CSCc3cc(cc(c3)OCCCCCCO/N=C/C(=O)N[C@@H](CCCCN)C(=O)N2)CSC[C@@H](C(N)=O)NC(=O)[C@H](CCC(=O)O)NC(=O)[C@H](Cc2ccc(O)cc2)NC(=O)[C@@H]2CCCN2C(=O)[C@H]([C@@H](C)O)NC(=O)[C@H](C)NC1=O [compound 108, TSL6- SKCPLATPYEC] (KCPLATPYEC-NH2; linker N-2-10 via X3) | > 500 | 
 | C[C@@H]1NC(=O)[C@@H]2CCCN2C(=O)[C@@H]2CSCc3cc(cc(c3)OCCCCCCO/N=C/C(=O)N[C@@H](CCCCN)C(=O)N2)CSC[C@@H](C(N)=O)NC(=O)[C@H](CCC(=O)O)NC(=O)[C@H](Cc2ccc(O)cc2)NC(=O)[C@@H]2CCCN2C(=O)[C@H]([C@@H](C)O)NC(=O)[C@H](CC(=O)O)NC1=O [compound 109, TSL- 6SKCPADTPYEC] (KCPADTPYEC-NH2; linker N-2-10 via X3) | > 500 | 
 | CC[C@H](C)[C@@H]1NC(=O)[C@H](C)NC(=O)[C@H](CCSC)NC(=O)[C@@H]2CCCN2C(=O)[C@@H]2CSCc3cc(cc(c3)OCCCCCCO/N=C/C(=O)N[C@@H](CCC(N)=O)C(=O)N2)CSC[C@@H](C(N)=O)NC(=O)[C@H]([C@@H](C)O)NC(=O)[C@@H]2CCCN2C1=O [compound 110, TSL6- SQCPMAIPTC] (QCPMAIPTC-NH2; linker N-2-9 via X3) | > 500 | 
 | N=C(N)NCCC[C@H]1CNC(=O)CNC(=O)[C@H](Cc2ccc(O)cc2)NC(=O)[C@H](Cc2c[nH]c3ccccc23)NC(=O)[C@H](Cc2c[nH]cn2)NC(=O)[C@@H]2CSCc3cc(cc(c3)OCCCCCCO/N=C/C(=O)N[C@@H](CCC(N)=O)C(=O)N2)CSC[C@@H](C(N)=O)NC(=O)[C@@H](CO)NC1=O [compound 111, TSL6- SQCHWYGRSC] (QCHWYG[X4][dS]C-NH2; linker N-2-9 via X3) | > 500 | 

Structure (SMILES) | half-life [1] [min] | IC50 (rh-integrin α4β7/LPAM-1) [µM] | further results
O=C(O)CCCc1ccc(N(CCCl)CCCl)cc1 [Chlorambucil, chlorambucil, reference compound] | 37.6 |  | 
